Values quoted from earlier work as cited in patent US20250375365A1, “MOUTH RESCUE RINSE AND METHODS OF REGULATING BLOOD PRESSURE” (University of Florida Research Foundation, Inc., priority 2024, published 2025).

Assays:
[1] = CHX rinses, healthy subjects; some studies reported
[2] = tested on: oral microbiome

What does the source list for `N=C(NCCCCCCNC(=N)NC(=N)Nc1ccc(Cl)cc1)NC(=N)Nc1ccc(Cl)cc1.O=C(O)[C@H](O)[C@@H](O)[C@H](O)[C@H](O)CO.O=C(O)[C@H](O)[C@@H](O)[C@H](O)[C@H](O)CO` [CHX, chlorhexidine gluconate]?
blood pressure values versus controls [1]: higher blood pressure values; reduction of oral microbiome associated with oral nitrate production ([2]; one-week CHX course): significantly impact the reduction of oral microbiome; bacterial species associated with oral inflammation ([2]; oral antiseptic mouthwash): effectively reduced bacterial species
